From ChEMBL document CHEMBL5360642, “Assimiloside A, a Glycolipid with Immunomodulatory Activity from the Northwestern Pacific Marine Sponge Hymeniacidon assimilis” (2023)
The source made the active and inactive calls. The calls are words filed in the database; no cut-off is given here.

What was measured:
[1] = system: RAW264.7; experiment: Induction of ROS production in mouse RAW264.7 cells assessed as increase in intracellular ROS formation at 1 uM incubated for 3 hrs by DCFH2-DA staining based assay relative to control; assay type: functional, cell-based
[2] = system: RAW264.7; experiment: Induction of ROS production in mouse RAW264.7 cells assessed as increase in intracellular ROS formation at 0.01 to 0.1 uM incubated for 3 hrs by DCFH2-DA staining based assay relative to control; assay type: functional; conditions: dose 0.01-0.1 µM
[3] = system: RAW264.7; experiment: Induction of ROS production in mouse RAW264.7 cells assessed as increase in intracellular ROS formation at 10 uM incubated for 3 hrs by DCFH2-DA staining based assay relative to control; assay type: functional
[4] = system: RAW264.7; experiment: Immunomodulatory activity in mouse RAW264.7 cells assessed as stimulation of lysosomal activity at 0.01 to 10 uM incubated for 2 hrs by acridine orange based fluorescence microplate reader analysis relative to control; assay type: functional; conditions: dose 0.01-10 µM

**Q.** For `CC[C@@H](O)CCCCCCCCCC(CCCCCCCCCCC[C@@H]1CCC(=O)O1)O[C@@H]1O[C@H](CO[C@@H]2OC[C@@H](O)[C@H](O)[C@H]2O)[C@@H](O)[C@H](O)[C@H]1O[C@@H]1OC[C@@H](O)[C@H](O)[C@H]1O` (some centres undefined), which Activity [1] is on record?
**A.** inactive

**Q.** And the Activity [2]?
**A.** 15%

**Q.** And the Activity [3]?
**A.** 15%

**Q.** And the Activity [4]?
**A.** 25%
